Read-outs that look alike come from different tables or passages of the source. Where only a bound is given, the exact number is not on record here.

We go through one molecule from US8742141B2, “Inhibition and treatment of prostate cancer metastasis” (Northwestern University, priority 2008, dated 2014).

Series [1] relates to MEK4. Nature of the series: Phosphorylation of MEK4 in vivo (TGFβ stimulated). Format: cell-based. As for the experimental part:
Phosphorylation by MEK4 (FIG. 4A) and phosphorylation of MEK4 (FIG. 7) was assayed. The Upstate Biotechnology MEK4 assay system was used to measure inhibition of MEK4 activity. Phosphorylation of MEK4 in vivo was assayed using standard techniques.

In the next series the test system is MMP-2. Nature of the series: Phase 2 trial, MMP-2 transcript by qRT/PCR in LCM normal prostate epithelial cells. In kind it is in vivo, human. The settings on record: 2 mg genistein/kg/day. As for the experimental part: Of 38 subjects completing the study, MMP-2 expression was analyzed in tissue from 12 genistein-treated subjects and 12 controls. […] MMP-2 expression was measured by removing normal prostate epithelial cells from intact fresh frozen prostate tissue by laser capture microdissection (LCM), isolating RNA, treating with DNase, assessing RNA quality by capillary electrophoresis, and measuring MMP-2 transcript levels by qRT/PCR (normalizing to GAPDH), using exon spanning primers.

For series [2] the following is noted: cited from earlier work.
The target in series [3] is T1, MEK4 (Homo sapiens, UniProt P45985).
T1 construct: purchased Upstate Biotechnology
T1 sequence (P45985 1-399): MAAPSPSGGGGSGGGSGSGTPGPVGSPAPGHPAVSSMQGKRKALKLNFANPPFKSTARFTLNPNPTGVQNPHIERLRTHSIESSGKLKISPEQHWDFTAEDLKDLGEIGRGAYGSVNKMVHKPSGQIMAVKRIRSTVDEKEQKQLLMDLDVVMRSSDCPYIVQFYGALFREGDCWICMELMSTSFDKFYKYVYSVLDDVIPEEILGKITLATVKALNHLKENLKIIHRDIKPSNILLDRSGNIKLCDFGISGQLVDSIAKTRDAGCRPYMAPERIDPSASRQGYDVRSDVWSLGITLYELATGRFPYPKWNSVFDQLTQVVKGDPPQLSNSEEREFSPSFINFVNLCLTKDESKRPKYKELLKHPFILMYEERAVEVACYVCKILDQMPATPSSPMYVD
Nature of the series: Upstate Biotechnology MEK4 assay system, inhibition of MEK4 kinase activity. In kind it is biochemical. The settings on record: in vitro.

Series [4] deals with PCa cell lines (PC3, PC3-M, 1532CPTX, 1542CPTX, 1532NPTX, 1542NPTX). Nature of the series: Cell invasion assay of PCa cell lines (Examples 2 and 3). In kind it is cell-based, human. An excerpt: MEK expression was examined in six human prostate cancer (PCa) cell lines: PC3 and PC3-M metastatic PCa cells, 1532CPTX and 1542 CPTX immortalized localized PCa cells, and 1532 NPTX and 1542 NPTX immortalized normal epithelial cells. The last four cell lines are primary cells, are HPV transformed, and thus represent early stages of prostate carcinogenesis. They provide representative members of the metastatic phenotype, as well as members of early state phenotypes. […] All six cell lines also secrete as well as respond to TGFβ, a regulator of cell motility that plays a role in PCa cell invasiveness.
Assays were conducted using methods as described in Craft et al. (2008, Mol. Pharmocol., 73(1):235-242; herein incorporated by reference in its entirety).

For the next series, the system named is human PC3-M PCa cells. Nature of the series: Orthotopic PC3-M implantation metastasis model in athymic mice.
Series [5] concerns ER promoter-luciferase reporter vector construct. Kind of series: ER promoter-luciferase reporter assay in MCF-7 cells. The settings on record: 10 μM. In kind it is cell-based, human. As for the experimental part:
The genes were: TFF1 (trefoil factor 1; also known as pS2), PGR (progesterone receptor), and CPSD (cathepsin D). Gene expression was measured by isolating RNA, and performing real time quantitative reverse transcription/polymerase chain reaction (qRT/PCR), using exon spanning primers (purchased from Applied Biosystems). The expression of GAPDH was also measured, and used to normalize the expression of ER responsive genes. Data below are the mean±SD of a single experiment, performed in duplicate. […] Additionally, the ability of compound 46 to activate an ER promoter-luciferase reporter vector construct after transient transfection of the human ER positive breast cancer cell line, MCF-7, was evaluated (FIG. 31). […] “No associated control cells” were transfected with an identical vector construct that lacked the estrogen response element, i.e., noERE.

The test system of series [6] is prostate epithelial cells. Nature of the series: Phase 2 trial, nuclear morphology of prostate epithelial cells. Format: in vivo, human. The following applies: genistein treated men vs controls. The text has this: Though morphologically “normal,” these cells are present within organs with PCa, have pre-cancer molecular changes, and represent an appropriate target cell type for therapy that inhibits a process associated with PCa progression, in this case, development of the metastatic phenotype. […] These findings are consistent with its effects in vitro and in mice.

Series [7] can be described thus: Phase 2 trial, serious adverse events. Format: in vivo, human. The settings on record: grade >/= 2 clinical toxicity, NCI Common Toxicity Criteria v 2.0; 12 subjects.
Setting [8] is: 0, 100, 250 mg genistein/kg chow.
Setting [9] is: Western blot, primary tumor tissue.

Take `O=c1c(-c2ccc(O)cc2)coc2cc(O)cc(O)c12` [genistein]: in the series with MEK4 [1], the “TGFβ increased MEK4 phosphorylation” value was “does not block such phosphorylation”. In addition, the “MMP-2 transcript level, % of controls (mean±SEM)” value in the series with MMP-2 is reported as 24±4.1%. Also, the tolerability entry in series [2] (2 to 8 mg genistein/kg, men with prostate cancer) was “well tolerated”. In series [2] (2 to 8 mg genistein/kg), the “peak concentration of free genistein” value is 66 to 170 nM and the peak concentration of total genistein is 4.3 to 16.3 µM. Moreover, the clearance result in series [2] (dependence on body mass) is “not altered by body mass”. Besides, in series [2] (in vivo), the blood genistein conjugated is on record as > 90% and the halflife was 15 to 22 h. In addition, the “phosphorylation of JNK3 by MEK4” value at MEK4 [3] is listed as “inhibits phosphorylation of JNK3 by MEK4”. For the same molecule, the cell invasion entry in series [4] (early and late stage PCa cells) was “inhibits invasion of both early and late stage PCa cells”. For the same molecule, in series [4] (in the presence of siMEK4), the “effect of genistein on invasiveness when MEK4 expression suppressed” value is given as “abrogated”. Also, in the series with human PC3-M PCa cells (setting [8]), the metastasis result is recorded as “decreased metastasis” and the tumor volume entry was “not tumor volume”. Also, in the series on human PC3-M PCa cells (setting [9]), the “level of total p38 MAP kinase protein” value is on record as “increased the level of total p38 MAP kinase protein” and the “p38 MAP kinase phosphorylation” value is reported as “decreased its phosphorylation”. Besides, in the series with human PC3-M PCa cells (between cohorts), the weight of mice entry is recorded as “no difference”. Also, the “blood concentration of total genistein” value (100 mg genistein/kg chow cohort) was found to be 290 ± 72 nM. Also, the “blood concentration of total genistein” value (250 mg genistein/kg chow cohort) was 1307 ± 507 nM. For the same molecule, the luciferase activity result in series [5] was “induced luciferase activity”. Moreover, in series [6], the “increase in nuclear length” value is 1.5±0.7% and the “increase in nuclear width” value amounted to 2.7±0.7%. For the same molecule, the “increase in nuclear area” value in series [6] (only a trend) stood at 2.0±1.0%. Moreover, in series [7], the “serious adverse events, number” value is recorded as 0.
